Where two headings read alike, the source gives them in different places.
Columns and labels:
p110β/p85 = p110β/p85 (Homo sapiens, UniProt P42338); assay: Inhibition of isolated enzyme, PI 3-kinase p110β/p85; type: biochemical; details: recombinant enzyme, 100 μM ATP, average of two experiments
Protocol: (§1) Compounds were evaluated for their ability to inhibit the Class I PI 3-kinase enzymes p110δ/p85, p110α/p85 and p110β/p85. Reaction mixtures comprising 0.1 μg of recombinant enzyme, 10 μg of L-α-phosphatidylinositol, the compound (DMSO only or DMSO+compound to a final concentration of 1%), 2× Lipid Kinase Buffer (40 mM Tris-HCl pH 7.4, 200 mM NaCl, 1 mM EDTA) were activated by the addition of an ATP mix (5 mM MgCl2, 100 μM ATP, 0.1 μL [γ^33P]ATP). […] Firstly, 200 μL of chloroform/methanol (1:1) was added, the biphasic reactions mixed and centrifuged briefly, and the inorganic phase was removed and discarded.

p110δ/p85 = p110δ/p85 (Homo sapiens, UniProt O00329); assay: Inhibition of isolated enzyme, PI 3-kinase p110δ/p85; type: biochemical; details: recombinant enzyme, 100 μM ATP, average of two experiments
Sequence of p110δ/p85 (O00329 whole entry, species assumed): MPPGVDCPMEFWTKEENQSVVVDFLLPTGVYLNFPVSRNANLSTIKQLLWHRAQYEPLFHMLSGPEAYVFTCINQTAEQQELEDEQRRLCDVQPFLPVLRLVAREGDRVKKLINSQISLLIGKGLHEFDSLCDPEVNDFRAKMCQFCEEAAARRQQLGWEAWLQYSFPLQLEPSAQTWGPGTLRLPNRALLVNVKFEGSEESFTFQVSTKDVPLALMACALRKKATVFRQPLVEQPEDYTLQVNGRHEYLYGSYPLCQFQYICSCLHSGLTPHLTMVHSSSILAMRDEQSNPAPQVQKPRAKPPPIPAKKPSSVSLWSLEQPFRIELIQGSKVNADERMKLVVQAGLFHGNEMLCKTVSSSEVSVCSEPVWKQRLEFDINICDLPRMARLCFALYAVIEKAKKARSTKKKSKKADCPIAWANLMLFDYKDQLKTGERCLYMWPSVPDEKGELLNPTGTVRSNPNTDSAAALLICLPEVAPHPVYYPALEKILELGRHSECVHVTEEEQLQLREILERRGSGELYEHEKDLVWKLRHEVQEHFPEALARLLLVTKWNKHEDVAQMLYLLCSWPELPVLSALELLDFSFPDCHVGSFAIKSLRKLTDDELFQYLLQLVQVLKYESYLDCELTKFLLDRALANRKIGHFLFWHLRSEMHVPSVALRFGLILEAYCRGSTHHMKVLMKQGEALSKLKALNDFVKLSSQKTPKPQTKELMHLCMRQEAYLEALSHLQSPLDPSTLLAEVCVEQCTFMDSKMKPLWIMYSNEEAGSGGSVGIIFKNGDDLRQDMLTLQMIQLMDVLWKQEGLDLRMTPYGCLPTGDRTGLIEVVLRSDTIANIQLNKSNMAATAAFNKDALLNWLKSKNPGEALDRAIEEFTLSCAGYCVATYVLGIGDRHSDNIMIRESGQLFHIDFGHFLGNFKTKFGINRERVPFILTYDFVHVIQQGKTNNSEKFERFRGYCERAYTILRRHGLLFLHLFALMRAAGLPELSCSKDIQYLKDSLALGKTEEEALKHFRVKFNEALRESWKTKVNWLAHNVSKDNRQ
Sequence of p110δ/p85 (P27986 whole entry partner, species assumed): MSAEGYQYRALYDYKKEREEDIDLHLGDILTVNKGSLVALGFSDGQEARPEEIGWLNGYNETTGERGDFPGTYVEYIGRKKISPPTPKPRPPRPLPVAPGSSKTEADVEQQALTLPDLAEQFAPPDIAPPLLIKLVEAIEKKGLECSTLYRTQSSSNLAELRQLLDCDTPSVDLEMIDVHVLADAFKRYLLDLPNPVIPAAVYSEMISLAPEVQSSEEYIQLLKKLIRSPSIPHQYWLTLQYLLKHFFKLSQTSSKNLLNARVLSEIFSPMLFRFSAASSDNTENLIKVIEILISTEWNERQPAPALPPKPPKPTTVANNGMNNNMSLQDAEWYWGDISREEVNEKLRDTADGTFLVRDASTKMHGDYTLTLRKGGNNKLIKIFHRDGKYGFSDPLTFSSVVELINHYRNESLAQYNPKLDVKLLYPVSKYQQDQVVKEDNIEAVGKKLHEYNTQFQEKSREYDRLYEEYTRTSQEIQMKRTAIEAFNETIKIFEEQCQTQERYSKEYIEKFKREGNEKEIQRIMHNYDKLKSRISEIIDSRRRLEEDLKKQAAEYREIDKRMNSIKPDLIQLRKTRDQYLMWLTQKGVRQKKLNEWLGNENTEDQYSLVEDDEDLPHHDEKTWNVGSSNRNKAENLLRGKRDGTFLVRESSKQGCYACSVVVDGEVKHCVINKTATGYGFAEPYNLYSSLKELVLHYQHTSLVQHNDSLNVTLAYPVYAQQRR
Protocol: as §1

NZB5 = assay: Cellular growth inhibition (3H-thymidine), NZB5; type: cell-based; details: Homo sapiens, five days, 3H-thymidine incorporation, maximum 20 μM
Protocol: (§2) The compounds were evaluated against two early passage human cell lines NZB5 and NZOV9, whose development and culture have been described [Marshall et al, Oncol. Res. 2004, 14, 297]. The cells were grown in ITS medium (α-modified minimal essential medium supplemented insulin, transferrin, selenite and 5% fetal bovine serum) and grown on 96-well tissue culture plates under an atmosphere of 5% O2, 5% CO2 and 90% N2. Individual wells contained 500-1000 cells (depending on the growth rate) in a volume of 150 μL. Compounds were added at 10-fold concentration steps to a maximum of 20 μM and plates were incubated for five days, with ^3H-thymidine being added over the last 6 h. Cells were harvested and incorporated radioactivity measured. Duplicate samples were analyzed for each compound dose with multiple control samples. Data were fitted by a least-squares method to an exponential of the form y=y0+ae^−bx, where y is the radioactivity (corrected for background and normalized to 100% of the control) x is the radiation dose, and y0, a and b are variables, and the IC50 value defined as the compound concentration reducing ^3H-thymidine levels by 50%.

NZOV9 = assay: Cellular growth inhibition (3H-thymidine), NZOV9; type: cell-based; details: Homo sapiens, five days, 3H-thymidine incorporation, maximum 20 μM
Protocol: as §2

p110α/p85 = p110α/p85 (Homo sapiens, UniProt P42336); assay: Inhibition of isolated enzyme, PI 3-kinase p110α/p85
Sequence of p110α/p85 (P42336 whole entry, species assumed): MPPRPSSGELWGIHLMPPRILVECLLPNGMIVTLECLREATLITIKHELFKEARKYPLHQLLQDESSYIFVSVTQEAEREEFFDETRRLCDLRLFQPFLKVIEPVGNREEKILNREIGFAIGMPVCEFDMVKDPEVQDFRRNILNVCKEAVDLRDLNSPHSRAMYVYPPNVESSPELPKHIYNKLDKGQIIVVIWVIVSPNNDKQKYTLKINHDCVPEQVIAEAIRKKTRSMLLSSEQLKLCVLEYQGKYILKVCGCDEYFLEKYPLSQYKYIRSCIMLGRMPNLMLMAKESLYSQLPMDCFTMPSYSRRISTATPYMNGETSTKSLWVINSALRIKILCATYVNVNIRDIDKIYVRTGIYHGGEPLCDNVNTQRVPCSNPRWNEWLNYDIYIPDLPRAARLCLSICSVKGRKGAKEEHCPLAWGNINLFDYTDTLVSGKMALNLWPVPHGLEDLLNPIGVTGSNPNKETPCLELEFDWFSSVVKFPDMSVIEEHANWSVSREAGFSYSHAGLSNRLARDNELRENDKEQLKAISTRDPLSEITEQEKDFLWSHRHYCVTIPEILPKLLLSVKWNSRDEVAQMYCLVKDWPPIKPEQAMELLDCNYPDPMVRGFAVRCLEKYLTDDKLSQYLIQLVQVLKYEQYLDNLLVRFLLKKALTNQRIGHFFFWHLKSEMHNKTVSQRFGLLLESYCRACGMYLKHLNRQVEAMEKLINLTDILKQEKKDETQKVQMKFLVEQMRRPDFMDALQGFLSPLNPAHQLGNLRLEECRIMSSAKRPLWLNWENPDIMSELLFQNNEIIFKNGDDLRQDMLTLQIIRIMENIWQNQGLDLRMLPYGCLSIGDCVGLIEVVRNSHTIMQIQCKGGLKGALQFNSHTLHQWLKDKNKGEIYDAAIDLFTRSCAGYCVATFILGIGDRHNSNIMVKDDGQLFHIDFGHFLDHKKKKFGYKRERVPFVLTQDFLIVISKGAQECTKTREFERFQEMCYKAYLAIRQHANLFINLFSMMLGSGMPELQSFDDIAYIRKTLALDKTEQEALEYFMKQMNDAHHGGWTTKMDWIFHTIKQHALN
Sequence of p110α/p85 (P27986 whole entry partner, species assumed): as the sequence (P27986 whole entry partner, species assumed) above

[1] = read-out: IC50 (nM) p110α, recombinant enzyme, 100 μM ATP, average of two experiments

Sequence of p110β/p85 (P42338 whole entry, species assumed): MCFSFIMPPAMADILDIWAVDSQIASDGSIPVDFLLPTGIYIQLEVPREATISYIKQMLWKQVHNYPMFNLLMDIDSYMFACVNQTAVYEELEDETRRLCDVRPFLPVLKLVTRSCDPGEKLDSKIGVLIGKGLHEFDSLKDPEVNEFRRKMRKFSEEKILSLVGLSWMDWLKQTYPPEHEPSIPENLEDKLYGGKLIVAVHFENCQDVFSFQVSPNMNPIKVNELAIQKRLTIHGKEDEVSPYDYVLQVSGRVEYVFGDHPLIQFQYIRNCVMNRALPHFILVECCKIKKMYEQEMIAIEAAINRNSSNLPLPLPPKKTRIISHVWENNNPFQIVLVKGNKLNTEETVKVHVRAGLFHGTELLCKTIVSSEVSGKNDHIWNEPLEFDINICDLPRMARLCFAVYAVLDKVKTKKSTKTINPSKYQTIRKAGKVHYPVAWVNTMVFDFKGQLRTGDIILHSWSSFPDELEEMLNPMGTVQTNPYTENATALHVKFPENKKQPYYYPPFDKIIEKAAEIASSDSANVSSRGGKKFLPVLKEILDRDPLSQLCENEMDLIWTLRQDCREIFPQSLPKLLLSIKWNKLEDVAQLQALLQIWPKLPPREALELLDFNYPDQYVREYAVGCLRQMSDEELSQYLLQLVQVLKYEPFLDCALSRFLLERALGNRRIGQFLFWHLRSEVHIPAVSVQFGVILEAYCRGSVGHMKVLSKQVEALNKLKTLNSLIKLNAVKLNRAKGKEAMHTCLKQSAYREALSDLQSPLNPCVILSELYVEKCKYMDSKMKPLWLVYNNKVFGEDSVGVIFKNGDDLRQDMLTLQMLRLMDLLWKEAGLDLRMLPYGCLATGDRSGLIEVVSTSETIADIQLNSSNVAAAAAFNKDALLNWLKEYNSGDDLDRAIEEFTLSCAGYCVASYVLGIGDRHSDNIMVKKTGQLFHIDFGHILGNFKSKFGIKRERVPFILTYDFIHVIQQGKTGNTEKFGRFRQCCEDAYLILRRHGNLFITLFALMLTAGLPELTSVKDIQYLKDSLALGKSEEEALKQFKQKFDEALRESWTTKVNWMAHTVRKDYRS
Sequence of p110β/p85 (P27986 whole entry partner, species assumed): as the sequence (P27986 whole entry partner, species assumed) above

Structure (SMILES) | IC50 (p110β/p85) [nM] | IC50 (p110δ/p85) [nM] | IC50 (NZB5) [µM] | IC50 (NZOV9) [µM] | IC50 (p110α/p85; [1]) [nM] | IC50 (p110α/p85) [nM]
CN(N=Cc1cnn2ccc(C#N)cc12)S(=O)(=O)c1cc([N+](=O)[O-])cnc1Cl [E80, 2-Chloro-N′-((5-cyanopyrazolo[1,5-a]pyridin-3-yl)methylene)-N-methyl-5-nitropyridine-3-sulfonohydrazide] | 5800 | 230 | 7.9 | 3.4 | 23 | –
CN(N=Cc1cnn2ccc(C#N)cc12)C(=O)c1cccc([N+](=O)[O-])c1 [E82, N′-((5-Cyanopyrazolo[1,5-a]pyridin-3-yl)methylene)-N-methyl-3-nitro-benzohydrazide] | 72 | 19 | 1.8 | 6 | 21 | –
Cc1ccc([N+](=O)[O-])cc1CN(C)N=Cc1cnn2ccc(C#N)cc12 [E84, 3-((2-Methyl-2-(2-methyl-5-nitrobenzyl)hydrazono)methyl)pyrazolo[1,5-a]pyridine-5-carbonitrile] | 48 | 39 | 1.7 | 1.9 | 41 | –
Cc1ccc([N+](=O)[O-])cc1S(=O)(=O)n1ccc(-c2cnn3ccc(Br)cc23)n1 [E88, 5-bromo-3-(1-(2-methyl-5-nitrophenylsulfonyl)-1H-pyrazol-3-yl)pyrazolo[1,5-a]pyridine] | > 1000 | 1450 | 0.08 | 0.07 | 250 | –
O=[N+]([O-])c1cccc(S(=O)(=O)c2nc(-c3cnn4ccc(Br)cc34)cs2)c1 [E90, 4-(5-Bromopyrazolo[1,5-a]pyridin-3-yl)-2-(3-nitrophenylsulfonyl)thiazole] | 5500 | 250 | 0.18 | 0.61 | 790 | –
Cc1ccc([N+](=O)[O-])cc1Sc1nnc(-c2cnn3ccc(Br)cc23)o1 [E91, 2-(5-Bromopyrazolo[1,5-a]pyridin-3-yl)-5-(2-methyl-5-nitrophenylthio)-1,3,4-oxadiazole] | > 1000 | 120 | 0.73 | 2.8 | – | 84

Source: patent publication US20100226881A1, “PYRAZOLO[1,5-a]PYRIDINES AND THEIR USE IN CANCER THERAPY” (Auckland Uniservices Limited, priority 2007, published 2010)
